Reference: US8486863B2, “Activators of lateral root formation” (VIB VZW, priority 2006, dated 2013)

Experiments:
auxin signaling mutants [1] = experiment: Effect of activators on lateral root density of auxin signaling mutants (Table 2); assay type: in vivo, Arabidopsis thaliana
Text: (§1) Afb1, Afb2, Afb3 and the triple mutant Tirlafb2afb3 were described by Dhamasiri et al. (2005). Tir1 was described by Ruegger et al., (1998); 1aa28 by Rogg et al., (2001); Tir7-1 by Ruegger et al., (1997); the Cyp79b2b3 double mutant by Ljung et al. (2005); the arf7arf19 double mutant by Fukaki et al., (2005); Aux1 by Bennett et al., (1996); Xbat32 by Nodzon et al., (2004), Axr1-12 by Timpte et al., (1995), Slr1 by Fukaki et al., 2002 and Axr3-1 by Collet et al., (2000) and the mutants were obtained from the publishing authors.
(§2) For phenotypic analysis, all mutants were grown on vertically oriented square plates (Greiner Labortechnik, Austria) with solid medium derived from standard MS medium. The plates were put in a growth chamber under continuous light (110 μE.m2.s1 photosynthetically active radiation, supplied by cool-white fluorescent tungsten tubes; Osram) at 22° C. Three days after germination, the mutant plants were transferred to medium supplemented with compounds and were left to grow for another 7 days. After this, root length and number of lateral roots were counted using ImageJ 1.34 freeware.

[2] = test system: genes involved in auxin biosynthesis, auxin transport, auxin signaling and cell cycle; experiment: Q-PCR transcript profiling of roots after compound treatment; assay type: in vivo, Arabidopsis thaliana; conditions: 30 μM; 6 hrs or 24 hrs treatment
Procedure: FIG. 5: Transcript profiling of roots of wild-type Arabidopsis thaliana plants after 6 hrs or 24 hrs treatment with A2 (upper panel), A14 (middle panel) or A11 (lower panel) at a concentration of 30 μM.
RNA was extracted with the RNeasy kit. Poly(dT) cDNA was prepared from […] of total RNA with Superscript III reverse transcriptase (Invitrogen) and quantified on an LightCycler 480 apparatus (Roche) with the SYBR Green I Master kit (Roche) according to the manufacturers instructions. Target quantifications were performed with specific primer pairs designed with the Beacon Designer 4.0 (Premier Biosoft International). All PCRs were performed in triplicate. […] The primers used to quantify gene expression levels were: […]
Using Q-PCR, the expression of selected genes involved in auxin biosynthesis, auxin transport, auxin signaling and cell cycle was analyzed in response to compound treatment (FIG. 5).

[3] = test system: Wild-type Arabidopsis thaliana; experiment: Dose-response analysis of lateral root density and root length; assay type: in vivo; conditions: for compound concentration that increased root density five times compared to controls: 10 days after germination; for Root length: at the concentration that increased root density five times (20 μM A11, 1.5 μM NAA)
Procedure: FIG. 3: Dose-response analysis of class 1 (upper panel) and class 2 (lower panel) activators. Wild-type Arabidopsis thaliana seeds were germinated under standard conditions on agar plates. After 3 days of germination, seedlings were transferred to agar plates containing compound at different concentrations. Lateral root density was measured 10 days after germination. Bars represent standard errors.
FIG. 4: Dose-response analysis of A2, A11, A12, A14 and NAA. Wild-type Arabidopsis thaliana seeds were germinated under standard conditions on agar plates. After 3 days of germination, seedlings were transferred to agar plates containing compound at different concentrations and 1% DMSO. Plants transferred to agar plates containing 1% DMSO and no compound were used as controls. Lateral root density (left panels) and root length (right panels) were measured 10 days after germination. Bars represent standard errors.
For further phenotypic analysis, all plants were grown on vertically oriented square plates (Greiner Labortechnik, Austria) with solid medium derived from standard MS medium under the same conditions. 3 DAG plants were transferred to medium supplemented with compounds and were left to grow for another 7 days. After this, root length and number of LRs were counted using ImageJ 1.34 freeware.
As a subsequent step, the phenotypic effect of the 16 selected activators was determined in a dose-response analysis in which LR density (number of LRs per cm) was quantified (FIG. 3). Based upon potency and structure, two different classes of activators could be identified.

auxin signaling mutants [4] = experiment: Effect of A12 and NAA on lateral root density and root length of auxin signaling mutants (Table 1); assay type: in vivo, Arabidopsis thaliana; parameters: Root length: unit not given here; conditions: 3 uM
Text: as §1, §2
DMSO is used as negative control.

[5] = tir TM (Tir1afb2afb3 triple mutant)

## CN1C(=O)C(=Cc2ccc(-c3cccc(C(F)(F)F)c3)o2)SC1=S [A11, 3-methyl-2-thioxo-5-({5-[3-(trifluoromethyl)phenyl]-2-furyl}methylene)-1,3-thiazolidin-4-one]
Auxin signaling mutants [1]; Afb1-1, 30 uM
  lateral root density: 20.74 LR/cm
Auxin signaling mutants [1]; Afb2-1, 30 uM
  lateral root density: 14.04 LR/cm
Auxin signaling mutants [1]; Afb3-1, 30 uM
  lateral root density: 12.99 LR/cm
Auxin signaling mutants [1]; Arf7Arf19, 30 uM
  lateral root density: 0.04 LR/cm
Auxin signaling mutants [1]; Arf16, 30 uM
  lateral root density: 8.76 LR/cm
Auxin signaling mutants [1]; Arf17, 30 uM
  lateral root density: 11.04 LR/cm
Auxin signaling mutants [1]; Axrt-12, 30 uM
  lateral root density: 12.26 LR/cm
Auxin signaling mutants [1]; Cyp79, 30 uM
  lateral root density: 13.74 LR/cm
Auxin signaling mutants [1]; Iaa28-1, 30 uM
  lateral root density: 10.36 LR/cm
Auxin signaling mutants [1]; Tir1-1, 30 uM
  lateral root density: 8.95 LR/cm
Auxin signaling mutants [1]; Tir7-1, 30 uM
  lateral root density: 43.59 LR/cm
Auxin signaling mutants [1]; TirTM, 30 uM
  lateral root density: 0.00 LR/cm
Auxin signaling mutants [1]; Xbat32, 30 uM
  lateral root density: 7.76 LR/cm
[2]
  stage of LR initiation at which the effect on gene expression is exerted: late stages of LR initiation (24 h)
[3]; FIG. 4
  compound concentration that increased root density five times compared to controls: 20 µM
[3]
  Root length: 0.7 times the root length of controls
[3]; dose-response, FIG. 3
  potency as activator of LR development (LR density): most potent activators of class 2

## O=C(O)Cc1cccc2ccccc12 [NAA, 1-naphthylacetic acid, reference compound]
Auxin signaling mutants [1]; Afb1-1, 0.1 uM
  lateral root density: 13.49 LR/cm
Auxin signaling mutants [1]; Afb1-1, 0.3 uM
  lateral root density: 8.76 LR/cm
Auxin signaling mutants [1]; Afb1-1, 1 uM
  lateral root density: 21.43 LR/cm
Auxin signaling mutants [1]; Afb1-1, 3 uM
  lateral root density: 47.81 LR/cm
Auxin signaling mutants [1]; Afb2-1, 0.1 uM
  lateral root density: 14.57 LR/cm
Auxin signaling mutants [1]; Afb2-1, 0.3 uM
  lateral root density: 8.98 LR/cm
Auxin signaling mutants [1]; Afb2-1, 1 uM
  lateral root density: 28.72 LR/cm
Auxin signaling mutants [1]; Afb2-1, 3 uM
  lateral root density: 59.72 LR/cm
Auxin signaling mutants [1]; Afb3-1, 0.1 uM
  lateral root density: 15.27 LR/cm
Auxin signaling mutants [1]; Afb3-1, 0.3 uM
  lateral root density: 8.93 LR/cm
Auxin signaling mutants [1]; Afb3-1, 1 uM
  lateral root density: 27.72 LR/cm
Auxin signaling mutants [1]; Afb3-1, 3 uM
  lateral root density: 55.01 LR/cm
Auxin signaling mutants [1]; Arf7Arf19, 0.1 uM
  lateral root density: 0.00 LR/cm
Auxin signaling mutants [1]; Arf7Arf19, 0.3 uM
  lateral root density: 0.00 LR/cm
Auxin signaling mutants [1]; Arf7Arf19, 1 uM
  lateral root density: 0.17 LR/cm
Auxin signaling mutants [1]; Arf7Arf19, 3 uM
  lateral root density: 13.18 LR/cm
Auxin signaling mutants [1]; Arf16, 0.1 uM
  lateral root density: 8.05 LR/cm
Auxin signaling mutants [1]; Arf16, 0.3 uM
  lateral root density: 6.63 LR/cm
Auxin signaling mutants [1]; Arf16, 1 uM
  lateral root density: 10.83 LR/cm
Auxin signaling mutants [1]; Arf16, 3 uM
  lateral root density: 17.17 LR/cm
Auxin signaling mutants [1]; Arf17, 0.1 uM
  lateral root density: 6.57 LR/cm
Auxin signaling mutants [1]; Arf17, 0.3 uM
  lateral root density: 10.34 LR/cm
Auxin signaling mutants [1]; Arf17, 1 uM
  lateral root density: 0.47 LR/cm
Auxin signaling mutants [1]; Arf17, 3 uM
  lateral root density: 24.68 LR/cm
Auxin signaling mutants [1]; Axrt-12, 0.1 uM
  lateral root density: 8.04 LR/cm
Auxin signaling mutants [1]; Axrt-12, 0.3 uM
  lateral root density: 9.25 LR/cm
Auxin signaling mutants [1]; Axrt-12, 1 uM
  lateral root density: 9.03 LR/cm
Auxin signaling mutants [1]; Axrt-12, 3 uM
  lateral root density: 27.55 LR/cm
Auxin signaling mutants [1]; Cyp79, 0.1 uM
  lateral root density: 15.83 LR/cm
Auxin signaling mutants [1]; Cyp79, 0.3 uM
  lateral root density: 6.85 LR/cm
Auxin signaling mutants [1]; Cyp79, 1 uM
  lateral root density: 22.20 LR/cm
Auxin signaling mutants [1]; Cyp79, 3 uM
  lateral root density: 50.78 LR/cm
Auxin signaling mutants [1]; Iaa28-1, 0.1 uM
  lateral root density: 3.57 LR/cm
Auxin signaling mutants [1]; Iaa28-1, 0.3 uM
  lateral root density: 7.46 LR/cm
Auxin signaling mutants [1]; Iaa28-1, 1 uM
  lateral root density: 11.92 LR/cm
Auxin signaling mutants [1]; Iaa28-1, 3 uM
  lateral root density: 40.09 LR/cm
Auxin signaling mutants [1]; Tir1-1, 0.1 uM
  lateral root density: 5.14 LR/cm
Auxin signaling mutants [1]; Tir1-1, 0.3 uM
  lateral root density: 11.34 LR/cm
Auxin signaling mutants [1]; Tir1-1, 1 uM
  lateral root density: 6.74 LR/cm
Auxin signaling mutants [1]; Tir1-1, 3 uM
  lateral root density: 18.30 LR/cm
Auxin signaling mutants [1]; Tir7-1, 0.1 uM
  lateral root density: 15.76 LR/cm
Auxin signaling mutants [1]; Tir7-1, 0.3 uM
  lateral root density: 5.78 LR/cm
Auxin signaling mutants [1]; Tir7-1, 1 uM
  lateral root density: 14.79 LR/cm
Auxin signaling mutants [1]; Tir7-1, 3 uM
  lateral root density: 46.33 LR/cm
Auxin signaling mutants [1]; TirTM, 0.1 uM
  lateral root density: 8.04 LR/cm
Auxin signaling mutants [1]; TirTM, 0.3 uM
  lateral root density: 18.89 LR/cm
Auxin signaling mutants [1]; TirTM, 1 uM
  lateral root density: 15.81 LR/cm
Auxin signaling mutants [1]; TirTM, 3 uM
  lateral root density: 45.09 LR/cm
Auxin signaling mutants [1]; Xbat32, 0.1 uM
  lateral root density: 4.27 LR/cm
Auxin signaling mutants [1]; Xbat32, 0.3 uM
  lateral root density: 9.26 LR/cm
Auxin signaling mutants [1]; Xbat32, 1 uM
  lateral root density: 12.70 LR/cm
Auxin signaling mutants [1]; Xbat32, 3 uM
  lateral root density: 33.67 LR/cm
Auxin signaling mutants [4]; CDKB DN
  Root length: 0.42
Auxin signaling mutants [4]; Col-0
  LR density: 52.98
  Root length: 1.08
Auxin signaling mutants [4]; Ws
  LR density: 45.59
  Root length: 0.87
Auxin signaling mutants [4]; Xbat32
  LR density: 36.83
  Root length: 1.33
Auxin signaling mutants [4]; afb1-1
  LR density: 51.36
  Root length: 0.93
Auxin signaling mutants [4]; afb2-1
  LR density: 51.08
  Root length: 0.87
Auxin signaling mutants [4]; afb3-1
  LR density: 46.76
  Root length: 0.94
Auxin signaling mutants [4]; arf7arf19 DM (double mutant)
  Root length: 0.87
Auxin signaling mutants [4]; aux1
  Root length: 0.93
Auxin signaling mutants [4]; axr1-12
  LR density: 40.22
  Root length: 1.12
Auxin signaling mutants [4]; axr5-1
  LR density: 27.56
  Root length: 1.27
Auxin signaling mutants [4]; cyp79b2-3 DM (double mutant)
  LR density: 37.27
  Root length: 1.43
Auxin signaling mutants [4]; iaa28-1
  LR density: 48.10
  Root length: 0.86
Auxin signaling mutants [4]; lax3
  LR density: 63.09
  Root length: 1.02
Auxin signaling mutants [4]; msg2-1
  LR density: 37.22
  Root length: 1.13
Auxin signaling mutants [4]; slr-1
  LR density: 0.00
  Root length: 0.84
Auxin signaling mutants [4]; tir1-1
  LR density: 57.73
  Root length: 0.99
Auxin signaling mutants [4]; tir7-1
  LR density: 41.72
  Root length: 0.87
Auxin signaling mutants [4]; [5]
  LR density: 47.00
  Root length: 0.80
[3]; FIG. 4
  LR density response to increasing compound concentration: threshold-like mechanism
  compound concentration that increased root density five times compared to controls: 1.5 µM
[3]
  Root length: 0.2 times the root length of controls
